Experimental data as given in patent US9790233B2, “Compositions and methods of modulating 15-PGDH activity” (CASE WESTERN RESERVE UNIVERSITY, priority 2012, dated 2017).
Read-outs that look alike come from different tables or passages of the source.

Key:
Format in all cases: cell-based
[1] = test system: 15-PGDH luciferase fusion construct in V9m reporter cell line; test: 15-PGDH-luciferase fusion gene reporter induction, V9m cells
[2] = test system: 15-PGDH luciferase fusion construct in Vaco503 reporter cell line; test: 15-PGDH-luciferase fusion gene reporter induction, V503 cells
[3] = test system: 15-PGDH luciferase fusion construct in LS174T reporter cell line; test: 15-PGDH-luciferase fusion gene reporter induction, LS174T cells; details: Homo sapiens
[4] = read-out: V9M-SC3 Reporter activity ([…]) (%), V9m reporter cells, […] compound, % induction of luciferase activity over basal level, read-out: V9M-SC3 Reporter activity (2.5 μM) (%)
[5] = read-out: V9M-SC3 Reporter activity ([…]), %, V9m reporter cells, […] compound, % induction of luciferase activity over basal level, read-out: V9M-SC3 Reporter activity (7.5 μM), %
[6] = read-out: V503-3H9-7 reporter activity, % ([…]), V503 reporter cells, […] compound, % induction of luciferase activity over basal level, read-out: V503-3H9-7 reporter activity, % (2.5 μM)
[7] = read-out: V503-3H9-7 reporter activity, % ([…]), V503 reporter cells, […] compound, % induction of luciferase activity over basal level, read-out: V503-3H9-7 reporter activity, % (7.5 μM)
[8] = read-out: Ls174T-SC1 reporter activity, % ([…]), LS174T reporter cells, […] compound, % induction of luciferase activity over basal level, read-out: Ls174T-SC1 reporter activity, % (2.5 μM)
[9] = read-out: Ls174T-SC1 reporter activity, % ([…]), LS174T reporter cells, […] compound, % induction of luciferase activity over basal level, read-out: Ls174T-SC1 reporter activity, % (7.5 μM)
[10] = read-out: V9M reporter activity ([…]), […], % increased luciferase activity over basal level, 100 = doubling, read-out: V9M reporter activity (2.5 uM)
[11] = read-out: V9M reporter activity ([…]), […], % increased luciferase activity over basal level, 100 = doubling, read-out: V9M reporter activity (7.5 uM)
[12] = read-out: V503 reporter activity ([…]), […], % increased luciferase activity over basal level, read-out: V503 reporter activity (2.5 uM)
[13] = read-out: V503 reporter activity ([…]), […], % increased luciferase activity over basal level, read-out: V503 reporter activity (7.5 uM)
[14] = read-out: LS174T reporter activity ([…]), […], % increased luciferase activity over basal level, read-out: LS174T reporter activity (2.5 uM)
[15] = read-out: LS174T reporter activity ([…]), […], % increased luciferase activity over basal level, read-out: LS174T reporter activity (7.5 uM)
[16] = read-out: V9M reporter activity ([…]), […], % induction of luciferase activity over basal level, Table 17, read-out: V9M reporter activity (2.5 μM)
[17] = read-out: V9M reporter activity ([…]), […], % induction over basal level, Table 17, read-out: V9M reporter activity (7.5 μM)
[18] = read-out: V503 reporter activity ([…]), […], % induction over basal level, Table 17, read-out: V503 reporter activity (2.5 μM)
[19] = read-out: V503 reporter activity ([…]), […], % induction over basal level, Table 17, read-out: V503 reporter activity (7.5 μM)
[20] = read-out: LS174T reporter activity ([…]), […], % induction over basal level, Table 17, read-out: LS174T reporter activity (2.5 μM)
[21] = read-out: lS174T reporter activity ([…]), […], % induction over basal level, Table 17, read-out: lS174T reporter activity (7.5 μM)

SMILES | activation at […] [1, 4] [%] | activation at […] [1, 5] [%] | activation at […] [2, 6] [%] | activation at […] [2, 7] [%] | activation at […] [3, 8] [%] | activation at […] [3, 9] [%] | activation at […] [1, 10] [%] | activation at […] [1, 11] [%] | activation at […] [2, 12] [%] | activation at […] [2, 13] [%] | activation at […] [3, 14] [%] | activation at […] [3, 15] [%] | further results
COc1ccc(OC)c(CN(CC(=O)Nc2cccnc2)S(=O)(=O)c2ccccc2)c1 [SW203688] | 12.1 | 6.04 | -28.1 | -99.5 | 12.6 | 14.8 | – | – | – | – | – | – | –
CCCCC(=O)c1sc2nc(-c3cccs3)cc(-c3ccccc3)c2c1N [SW206976, 1-(3-amino-4-phenyl-6-(thiophen-2-yl)thieno[2,3-b]pyridin-2-yl)pentan-1-one] | – | – | – | – | – | – | 11.8 | 17.5 | 16.8 | 49.5 | 42.4 | 20.6 | –
CCCNC(=O)c1sc2nc(-c3cccs3)cc(-c3ccccc3)c2c1N [SW206977, 3-amino-4-phenyl-N-propyl-6-(thiophen-2-yl)thieno[2,3-b]pyridine-2-carboxamide] | – | – | – | – | – | – | 3.5 | 0.45 | 33 | 37.6 | 34.9 | 29.4 | –
CCOC(=O)c1sc2nc(-c3cccs3)cc(-c3ccccc3)c2c1N [SW206978, Ethyl 3-amino-4-phenyl-6-(thiophen-2-yl)thieno[2,3-b]pyridine-2-carboxylate] | – | – | – | – | – | – | 7.51 | 8.02 | 38.8 | 35.8 | 31.4 | 26.2 | –
COc1ccc(OC)c(N(CC(=O)N2CCCCCC2)S(=O)(=O)c2ccccc2)c1 [SW208000] | 33.5 | 36.6 | 122 | 138 | 42 | 70.5 | – | – | – | – | – | – | –
COc1ccc(OC)c(N(CC(=O)N2CCCC2)S(=O)(=O)c2ccccc2)c1 [SW208001] | 19.6 | 23.3 | -4.07 | 6.68 | -0.61 | 1.87 | – | – | – | – | – | – | –
COc1ccc(OC)c(N(CC(=O)N2CCCC2=O)S(=O)(=O)c2ccccc2)c1 [SW208002] | -12.4 | -21.8 | -15.7 | -16.5 | -14.5 | -14.6 | – | – | – | – | – | – | –
COc1ccc(OC)c(N(CC(=O)N2CCc3ccccc32)S(=O)(=O)c2ccccc2)c1 [SW208003] | 13.3 | -11.5 | 117 | 75.9 | 37 | 45.6 | – | – | – | – | – | – | –
COc1ccc(OC)c(N(CC(=O)Nc2ccncc2F)S(=O)(=O)c2ccccc2)c1 [SW208004] | 43.7 | 76.1 | 147 | 177 | 62.2 | 118 | – | – | – | – | – | – | –
COc1ccc(OC)c(N(CC(=O)Nc2ccnc(F)c2)S(=O)(=O)c2ccccc2)c1 [SW208005] | 42.4 | 19.8 | 103 | 61.2 | 63.9 | 53.9 | – | – | – | – | – | – | –
COc1ccc(OC)c(N(CC(=O)N2CCCc3ccccc32)S(=O)(=O)c2ccccc2)c1 [SW208006] | 34.9 | 0.15 | 89.7 | 43.9 | 38.2 | 42.2 | – | – | – | – | – | – | –
COc1ccc(S(=O)(=O)N(CC(=O)Nc2cccnc2)c2cc(C(F)(F)F)ccc2C(F)(F)F)cc1 [SW208008] | -5.96 | -0.92 | 31.9 | 39.6 | -2.16 | 10 | – | – | – | – | – | – | –
CCCC[S+]([O-])c1sc2ncccc2c1N (stereo not drawn) [SW208064, 2-(butylsulfinyl)thieno[2,3-b]pyridin-3-amine] | – | – | – | – | – | – | 82.6 | 50.1 | 126 | 96.2 | 126 | 96.2 | –
CCCC[S+]([O-])c1sc2nc(-c3ccccc3)nc(-c3ccccc3)c2c1N (stereo not drawn) [SW208065, 6-(butylsulfinyl)-2,4-diphenylthieno[2,3-d]pyrimidin-5-amine] | – | – | – | – | – | – | 120 | 119 | 73.5 | 87.7 | 73.5 | 87.7 | –
CCCCSc1ncccc1N [SW208068, 2-(butylthio)pyridin-3-amine] | – | – | – | – | – | – | 12.9 | 12.3 | 14.9 | 15 | 14.9 | 15 | –
CCCC[S+]([O-])c1ncccc1N (stereo not drawn) [SW208070, 2-(butylsulfinyl)pyridin-3-amine] | – | – | – | – | – | – | 22.6 | 12.1 | 19.7 | 15.4 | 19.7 | 15.4 | –
CCCCS(=O)(=O)c1sc2nc(-c3cccs3)cc(-c3ccccc3)c2c1N [SW208078, 2-(butylsulfonyl)-4-phenyl-6-(thiophen-2-yl)thieno[2,3-b]pyridin-3-amine] | – | – | – | – | – | – | 36.2 | 34.9 | 87.7 | 83.8 | 72.7 | 40 | –
CCCCC[S+]([O-])c1sc2nc(-c3cccs3)cc(-c3ccccc3)c2c1N (stereo not drawn) [SW208080, 2-(pentylsulfinyl)-4-phenyl-6-(thiophen-2-yl)thieno[2,3-b]pyridin-3-amine] | – | – | – | – | – | – | 102 | 98.7 | 104 | 127 | 118 | 117 | –
CCCCCC[S+]([O-])c1sc2nc(-c3cccs3)cc(-c3ccccc3)c2c1N (stereo not drawn) [SW208081, 2-(hexylsulfinyl)-4-phenyl-6-(thiophen-2-yl)thieno[2,3-b]pyridin-3-amine] | – | – | – | – | – | – | 37.8 | 63.6 | 90.5 | 105 | 64.5 | 95.1 | –
COc1ccc(N(CC(=O)N/N=C/c2cccnc2)S(=O)(=O)c2ccccc2)c(OC)c1 [compound 396087] | – | – | – | – | – | – | – | – | – | – | – | – | activation at […] [1, 16]: -8.51%; activation at […] [1, 17]: 10.1%; activation at […] [2, 18]: 17.2%; activation at […] [2, 19]: 30.8%; activation at […] [3, 20]: 4.37%; activation at […] [3, 21]: 10.2%
CCOC(=O)c1sc2nc(-c3ccccc3)cc(-c3ccccc3)c2c1N [compound 405320] | – | – | – | – | – | – | 8.77 | -15.4 | -7.73 | -33.7 | 9.95 | -2.57 | –
CCc1ccccc1NC(=O)CN(c1ccc(OC)cc1OC)S(=O)(=O)c1ccccc1 [compound 407572] | – | – | – | – | – | – | – | – | – | – | – | – | activation at […] [1, 16]: -8.45%; activation at […] [1, 17]: -6.12%; activation at […] [2, 18]: 17.2%; activation at […] [2, 19]: 35.9%; activation at […] [3, 20]: 2.22%; activation at […] [3, 21]: 6.94%
COc1ccc(N(CC(=O)Nc2cccc(Cl)c2)S(=O)(=O)c2ccc(OC)c(OC)c2)cc1 [compound 408961] | – | – | – | – | – | – | – | – | – | – | – | – | activation at […] [1, 16]: -12.4%; activation at […] [1, 17]: 0.56%; activation at […] [2, 18]: 11.7%; activation at […] [2, 19]: 17.6%; activation at […] [3, 20]: 2.46%; activation at […] [3, 21]: -4.51%
